Experimental data as given in patent US20240300886A1, “ARYLCYCLOHEXYLAMINE DERIVATIVES AND THEIR USE IN THE TREATMENT OF PSYCHIATRIC DISORDERS” (GILGAMESH PHARMACEUTICALS, INC., priority 2021, published 2024).
Like-named read-outs stand apart in the source and are kept apart here.

Experiments:
[1] = Comparative metabolism/PK of 2R and deuterated 7R in rats after oral administration; type: in vivo, Sprague Dawley rats; conditions: for concentration at 0.083 h / concentration at 0.25 h / concentration at 0.5 h / concentration at 1 h / concentration at 2 h / concentration at 4 h: oral
Description: Animals. Male Sprague Dawley rats were used in these studies. Animals were randomly assigned to treatment groups and were fasted for 4 h before dosing.
Drugs. Test compounds 2R and 7R were dissolved in a vehicle consisting of normal saline. They were then administered orally (po) at a dose of 10 mg/kg (calculated based on freebase), and at a volume of 5 mL/kg body weight.
(§1) Sample Collection and Bioanalysis. Blood samples (approximately 60 μL) were collected under light isoflurane anesthesia (Surgivet®) from the retro orbital plexus at 0.08, 0.25, 0.5, 1, 2, 4, 8, and 24 h (4 animals per time point). Immediately after blood collection, plasma was harvested by centrifugation at 4,000 rpm for 10 min at 4° C. and samples were stored at −70±10° C. until bioanalysis. Following blood collection, animals were immediately sacrificed, the abdominal vena-cava was cut open, and the whole body was perfused from the heart using 10 mL of normal saline, and brain samples were collected from all animals. After isolation, brain samples were rinsed three times in ice-cold normal saline (for 5-10 seconds/rinse using ˜5-10 mL normal saline in disposable petri dish for each rinse) and dried on blotting paper. Brain samples were homogenized using ice-cold phosphate-buffered saline (pH 7.4) Total homogenate volume was three times the tissue weight. All homogenates were stored at −70±10° C. until bioanalysis. For bioanalysis, 25 μL aliquots of plasma/brain study samples or spiked plasma/brain calibration standards were added to individual pre-labeled micro-centrifuge tubes followed by 100 μL of an internal standard solution (glipizide, 500 ng/mL in acetonitrile) except for blanks, where 100 μL of acetonitrile was added. Samples were vortexed for 5 minutes and then centrifuged for 10 minutes at 4,000 rpm at 4° C. Following centrifugation, 100 μL of each clear supernatant was transferred to a 96 well plate and analyzed with a fit-for-purpose LC-MS/MS method, with authentic samples of each analyte used for calibration and identification. Concentrations of parent compound (2R or 7R) and metabolite 1R were determined in all samples.
(§2) Data Analysis. Pharmacokinetic parameters were estimated using the non-compartmental analysis tool of Phoenix® WinNonlin software (Ver 8.0).

[2] = Oral bioavailability in mice, Method B (plasma and brain PK); type: in vivo, C57BL/6 mice; conditions: Method B; for half-life / Cmax / AUC(0-inf): male, C57BL/6; for AUC(0-inf) / AUC0-inf (iv) / AUC0-inf (po): values represent AUC0-last; for F: 1 mg/kg
Description: Animals. Male C57BL/6 mice were used in these studies. Animals were randomly assigned to treatment groups and were fasted for 4 h before dosing.
Drugs. Test compounds were dissolved in a vehicle consisting of normal saline (for compounds used as the HCl salt) or normal saline slightly acidified with aq. HCl (for freebase compounds). They were then administered intravenously (iv) or orally (po) at a dose of 1 or 10 mg/kg (calculated based on freebase), as indicated, and at a volume of 5 mL/kg body weight. Compounds were tested as the racemates or pure enantiomers, as indicated.
as §1, with “˜5-10 mL,” for “˜5-10 mL”, “(pH 7.4).” for “(pH 7.4)”, “identification.” for “identification. Concentrations of parent compound (2R or 7R) and metabolite 1R were determined in all samples.”
as §2

[3] = biological target: MK-801 binding site of the N-methyl-D-aspartate receptor (NMDAR); assay: NMDA receptor radioligand binding with [3H]MK-801; design: species or system Wistar rat; conditions: [3H]MK-801 displacement, Wistar rat brain (minus cerebellum); read-out: NMDAR Ki (95% CI)
Description: The binding affinities of disclosed compounds at the MK-801 binding site of the N-methyl-D-aspartate receptor (NMDAR) were determined in radioligand binding experiments (Table 13).
Radioligand Binding. Affinity of the test compounds for NMDAR was determined in radioligand binding experiments with [^3H]MK-801 by Eurofins Panlabs, Inc., using methods adapted from the literature (Javitt el al. 1987; Reynolds et al. 1989) and under the conditions described in Table 14.

[4] = rat brain after 10 mg/kg po of 2R or 7R, parent or metabolite 1R as labelled, listed as 1R as metabolite of 2R
[5] = rat brain after 10 mg/kg po of 2R or 7R, parent or metabolite 1R as labelled, listed as 1R as metabolite of 7R
[6] = rat plasma after 10 mg/kg po of 2R or 7R, parent or metabolite 1R as labelled, listed as 1R as metabolite of 7R
[7] = mouse brain, 1 mg/kg iv, read-out: t1/2 (iv)
[8] = mouse plasma, 1 mg/kg iv, read-out: t1/2 (iv)
[9] = mouse plasma, 1 mg/kg iv, read-out: AUC0-inf (iv) (converted)
[10] = mouse plasma, 1 mg/kg po, read-out: t1/2 (po)
[11] = mouse plasma, 1 mg/kg po, read-out: AUC0-inf (po) (converted)
[12] = mouse brain, calculated based on brain exposure (AUC0-last)
[13] = mouse plasma, based on AUC0-last

N[C@@]1(c2ccc(F)cc2)CCCCC1=O [Compound 1R, (R)-2-amino-2-(4-fluorophenyl)cyclohexan-1-one]
concentration at 0.083 h ([1]; male, Sprague Dawley, rat, brain, 10 mg/kg, rat brain, 0.083 h after 10 mg/kg po of 2R or 7R, read-out: Mean brain concentration): 56 ng/g | concentration at 0.25 h ([1]; male, Sprague Dawley, rat, brain, 10 mg/kg, rat brain, 0.25 h after 10 mg/kg po of 2R or 7R, read-out: Mean brain concentration): 1470 ng/g | concentration at 0.5 h ([1]; male, Sprague Dawley, rat, brain, 10 mg/kg, rat brain, 0.5 h after 10 mg/kg po of 2R or 7R, read-out: Mean brain concentration): 3200 ng/g | concentration at 1 h ([1]; male, Sprague Dawley, rat, brain, 10 mg/kg, rat brain, 1 h after 10 mg/kg po of 2R or 7R, read-out: Mean brain concentration): 3500 ng/g | concentration at 2 h ([1]; male, Sprague Dawley, rat, brain, 10 mg/kg, rat brain, 2 h after 10 mg/kg po of 2R or 7R, read-out: Mean brain concentration): 2670 ng/g | concentration at 4 h ([1]; male, Sprague Dawley, rat, brain, 10 mg/kg, rat brain, 4 h after 10 mg/kg po of 2R or 7R, read-out: Mean brain concentration): 1610 ng/g | half-life ([1]; male, Sprague Dawley, rat, brain, po, 10 mg/kg, rat brain after 10 mg/kg po of 2R or 7R, parent or metabolite 1R as labelled, read-out: t1/2 (brain)): 2.02 h | concentration at 0.083 h ([1]; male, Sprague Dawley, rat, plasma, 10 mg/kg, rat plasma, 0.083 h after 10 mg/kg po of 2R or 7R, read-out: Mean plasma concentration): 31 ng/mL | concentration at 0.25 h ([1]; male, Sprague Dawley, rat, plasma, 10 mg/kg, rat plasma, 0.25 h after 10 mg/kg po of 2R or 7R, read-out: Mean plasma concentration): 889 ng/mL | concentration at 0.5 h ([1]; male, Sprague Dawley, rat, plasma, 10 mg/kg, rat plasma, 0.5 h after 10 mg/kg po of 2R or 7R, read-out: Mean plasma concentration): 1700 ng/mL | concentration at 1 h ([1]; male, Sprague Dawley, rat, plasma, 10 mg/kg, rat plasma, 1 h after 10 mg/kg po of 2R or 7R, read-out: Mean plasma concentration): 2110 ng/mL | concentration at 2 h ([1]; male, Sprague Dawley, rat, plasma, 10 mg/kg, rat plasma, 2 h after 10 mg/kg po of 2R or 7R, read-out: Mean plasma concentration): 1410 ng/mL | concentration at 4 h ([1]; male, Sprague Dawley, rat, plasma, 10 mg/kg, rat plasma, 4 h after 10 mg/kg po of 2R or 7R, read-out: Mean plasma concentration): 690 ng/mL | Cmax ([1]; male, Sprague Dawley, rat, plasma, po, 10 mg/kg, rat plasma after 10 mg/kg po of 2R or 7R, parent or metabolite 1R as labelled): 2110 ng/mL | AUC(0-t) ([1]; male, Sprague Dawley, rat, plasma, po, 10 mg/kg, rat plasma after 10 mg/kg po of 2R or 7R, parent or metabolite 1R as labelled, read-out: AUC0-last (plasma) (converted)): 8630 ng·h/mL | half-life ([1]; male, Sprague Dawley, rat, plasma, po, 10 mg/kg, rat plasma after 10 mg/kg po of 2R or 7R, parent or metabolite 1R as labelled, read-out: t1/2 (plasma)): 3.03 h | AUC0-last (brain) [1, 4]: 820350 ng·min/g | Cmax (brain) [1, 4]: 3502 ng/g | AUC0-last (brain) [1, 5]: 912802 ng·min/g | Cmax (brain) [1, 5]: 2335 ng/g | t1/2 (brain) [1, 5]: 3.08 h | Mean brain concentration ([1]; rat brain, 0.083 h after 10 mg/kg po of 2R or 7R, listed as 1R as metabolite of 7R): 59 ng/g | Mean brain concentration ([1]; rat brain, 0.25 h after 10 mg/kg po of 2R or 7R, listed as 1R as metabolite of 7R): 1233 ng/g | Mean brain concentration ([1]; rat brain, 0.5 h after 10 mg/kg po of 2R or 7R, listed as 1R as metabolite of 7R): 1623 ng/g | Mean brain concentration ([1]; rat brain, 1 h after 10 mg/kg po of 2R or 7R, listed as 1R as metabolite of 7R): 2075 ng/g | Mean brain concentration ([1]; rat brain, 2 h after 10 mg/kg po of 2R or 7R, listed as 1R as metabolite of 7R): 2335 ng/g | Mean brain concentration ([1]; rat brain, 4 h after 10 mg/kg po of 2R or 7R, listed as 1R as metabolite of 7R): 1176 ng/g | AUC0-last (plasma) [1, 6]: 503548 ng·min/mL | Cmax (plasma) [1, 6]: 1564 ng/mL | Mean plasma concentration ([1]; rat plasma, 0.083 h after 10 mg/kg po of 2R or 7R, listed as 1R as metabolite of 7R): 16 ng/mL | Mean plasma concentration ([1]; rat plasma, 0.25 h after 10 mg/kg po of 2R or 7R, listed as 1R as metabolite of 7R): 525 ng/mL | Mean plasma concentration ([1]; rat plasma, 0.5 h after 10 mg/kg po of 2R or 7R, listed as 1R as metabolite of 7R): 960 ng/mL | Mean plasma concentration ([1]; rat plasma, 1 h after 10 mg/kg po of 2R or 7R, listed as 1R as metabolite of 7R): 1360 ng/mL | Mean plasma concentration ([1]; rat plasma, 2 h after 10 mg/kg po of 2R or 7R, listed as 1R as metabolite of 7R): 1564 ng/mL | Mean plasma concentration ([1]; rat plasma, 4 h after 10 mg/kg po of 2R or 7R, listed as 1R as metabolite of 7R): 705 ng/mL

N[C@]1(c2ccc(F)cc2)CCCCC1=O [Compound 1S, (S)-2-amino-2-(4-fluorophenyl)cyclohexan-1-one]
half-life [2, 7]: 0.61 h | Cmax ([2]; mouse brain, 1 mg/kg po): 82.2 ng/g | half-life [2, 8]: 1.44 h | AUC(0-inf) [2, 9]: 501 ng·h/mL | Cmax ([2]; mouse plasma, 1 mg/kg po): 394 ng/mL | half-life [2, 10]: 1.37 h | AUC(0-inf) [2, 11]: 470 ng·h/mL | AUC0-inf (iv) ([2]; mouse brain, 1 mg/kg iv): 14,776 ng*min/g | AUC0-inf (po) ([2]; mouse brain, 1 mg/kg po): 6,557 ng*min/g | F [2, 12]: 44% | F [2, 13]: 94% | Ki [3]: 1700 nM

N[C@]1(c2cccc(F)c2)CCCCC1=O [Compound 3S]
half-life [2, 7]: 0.44 h | Cmax ([2]; mouse brain, 1 mg/kg po): 112 ng/g | half-life ([2]; mouse brain, 1 mg/kg po, read-out: t1/2 (po)): 0.68 h | half-life [2, 8]: 1.68 h | AUC(0-inf) [2, 9]: 608 ng·h/mL | Cmax ([2]; mouse plasma, 1 mg/kg po): 640 ng/mL | half-life [2, 10]: 0.49 h | AUC(0-inf) [2, 11]: 542 ng·h/mL | AUC0-inf (iv) ([2]; mouse brain, 1 mg/kg iv): 18,797 ng*min/g | AUC0-inf (po) ([2]; mouse brain, 1 mg/kg po): 7,418 ng*min/g | F [2, 12]: 39% | F [2, 13]: 89% | Ki [3]: 1700 nM
